In ChEMBL document CHEMBL1124708, “Glycolipids as host resistance stimulators” (1990):
Values joined by “and” are separate entries in the source; they are usually repeats but may differ in a detail not shown here. Identical values can stand only once.

Legend:
Mus musculus [1] = assay: Protective index of Pseudomonas aeruginosa after 40 mg/kg ip administration pretreated 250 mg/kg cytoxan ip on day -4.; type: functional
Pseudomonas aeruginosa [2] = assay: Protective index against Pseudomonas aeruginosa after 40 mg/kg subcutaneous administration pretreated 250 mg/kg cytoxan intraperitoneal on day -4.; type: functional
Pseudomonas aeruginosa [3] = assay: (§1) No of CFU was determined that cause 50% lethality against Pseudomonas aeruginosa after 40 mg/kg sc administration; type: functional; conditions: route subcutaneous
Mus musculus [4] = assay: No of CFU was determined that cause 50% lethality against Pseudomonas aeruginosa after 40 mg/kg ip administration; type: functional; conditions: route intraperitoneal
Mus musculus [5] = assay: Protective index of Pseudomonas aeruginosa after 40 mg/kg sc administration pretreated 250 mg/kg cytoxan ip on day -4.; type: functional
Mus musculus [6] = assay: Protective index Pseudomonas aeruginosa after 40 mg/kg sc administration pretreated 250 mg/kg cytoxan ip on day -4.; type: functional
Mus musculus [7] = assay: as §1; type: functional; conditions: route subcutaneous
[8] = (§2) Log value of the protective index was calculated; type: functional
Mus musculus [9] = species on record: Mus musculus; assay: as §2; type: functional, organism-based
Mus musculus [10] = assay: Protective index of Pseudomonas aeruginosa after 40 mg/kg im administration pretreated 250 mg/kg cytoxan ip on day -1; type: functional
Mus musculus [11] = assay: Protective index of Pseudomonas aeruginosa after 40 mg/kg im administration pretreated 250 mg/kg cytoxan ip on day -2; type: functional
Mus musculus [12] = assay: protective index of Pseudomonas aeruginosa after 40 mg/kg im administration pretreated 250 mg/kg cytoxan ip on day -1; type: functional
Mus musculus [13] = assay: Protective index of Pseudomonas aeruginosa after 40 mg/kg sc administration pretreated 250 mg/kg cytoxan ip on day -7; type: functional
Mus musculus [14] = assay: Protective index of Pseudomonas aeruginosa after 4 mg/kg sc administration pretreated 250 mg/kg cytoxan ip; type: functional
[15] = as §2

Question: With `CC(C)CCCC(C)[C@H]1CC[C@H]2C3CC=C4C[C@@H](OCCCCCCS[C@@H]5O[C@@H](CO)[C@@H](O)[C@H](O)[C@@H]5O)CC[C@]4(C)[C@H]3CC[C@]12C` (stereo in doubt; form 1) [listing 1 of 2 here] as the compound, how does the PI (Mus musculus [1]) read?
Answer: 4.75

Question: What about the PI (Pseudomonas aeruginosa [2]) of the same compound?
Answer: 0.53 and 0.94

Question: What about the “No. of Colony forming Units” value (Pseudomonas aeruginosa [3]; 40 mg/kg) of the same compound?
Answer: 56.7 and 47 and 101

Question: And the “No. of Colony forming Units” value (Mus musculus [4])?
Answer: 76

Question: What about the PI (Mus musculus [5]) of the same compound?
Answer: 2.94

Question: For `CC(=O)N[C@@H]1C(O)O[C@@H](CO)[C@@H](O)[C@@H]1O[C@@H](C)C(=O)N[C@@H](C)C(=O)N[C@@H](CCC(=O)O)C(N)=O` (some centres not stated), which PI (Mus musculus [6]) is on record?
Answer: 1.87 and 1.31

Question: And the PI (Mus musculus [7])?
Answer: 1.31

Question: And the Log PI [8]?
Answer: 0.27

Question: For `CC(=O)NC1C(SCCCCCCOC2CCC3(C)C(=CCC4C3CCC3(C)C(C(C)CCCC(C)C)CCC43)C2)OC(CO)C(O)C1O` (stereo in doubt; form 1) [listing 1 of 2 here], which PI (Pseudomonas aeruginosa [2]) is on record?
Answer: 0.53 and 0.7

Question: What about the “No. of Colony forming Units” value (Pseudomonas aeruginosa [3]; 40 mg/kg) of the same compound?
Answer: 5.67 and 7.5

Question: For `CC(C)CCOC(=O)C1CCC2C3CC=C4CC(OCCCCCCSC5OC(CO)C(O)C(O)C5O)CCC4(C)C3CCC12C` (configuration not stated), which PI (Pseudomonas aeruginosa [2]) is on record?
Answer: 1.01

Question: With `CC(C)CCC[C@@H](C)[C@H]1CC[C@H]2[C@@H]3CC=C4C[C@@H](OCCCCCCS[C@@H]5O[C@@H](CO)[C@@H](O[C@@H]6O[C@@H](CO)[C@H](O)[C@H](O)[C@@H]6O)[C@H](O)[C@@H]5O)CC[C@]4(C)[C@H]3CC[C@]12C` as the compound, how does the PI (Pseudomonas aeruginosa [2]) read?
Answer: 3.5

Question: For `CC(=O)NC1C(SCCCCCCOC2CCC3(C)C(=CCC4C3CCC3(C)C(C(C)CCCC(C)C)CCC43)C2)OC(CO)C(O)C1O` (stereo in doubt; form 2) [listing 1 of 2 here], which Log PI [8] is on record?
Answer: 0

Question: With `CC(C)CCCC(C)C1CCC2C3CC=C4CC(OCCCCSC5OC(CO)C(O)C(O)C5O)CCC4(C)C3CCC12C` (configuration not stated) as the compound, how does the PI (Pseudomonas aeruginosa [2]) read?
Answer: 0.84

Question: With `CC(=O)NC1C(SCCCCCCOC2CCC3(C)C(=CCC4C3CCC3(C)C(C(C)CCCC(C)C)CCC43)C2)OC(CO)C(O)C1O` (stereo in doubt; form 2) [listing 2 of 2 here] as the compound, how does the “No. of Colony forming Units” value (Pseudomonas aeruginosa [3]; 40 mg/kg) read?
Answer: 56.7 and 75

Question: For `CC(C)CCCC(C)C1CCC2C3CC=C4CC(OCCCCCCSC5OCC(O)C(O)C5O)CCC4(C)C3CCC12C` (configuration not stated), which PI (Pseudomonas aeruginosa [2]) is on record?
Answer: 1.01

Question: For `CC(=O)N[C@H]1C(O)O[C@@H](COC(=O)[C@H]2CC[C@@]3(C)C(=CC[C@H]4[C@@H]5CC[C@H]([C@H](C)CCCC(C)C)[C@@]5(C)CC[C@@H]43)C2)[C@@H](O)[C@@H]1O[C@@H](C)C(=O)N[C@@H](C)C(=O)N[C@@H](CCC(=O)O)C(N)=O` (some centres not stated), which PI (Pseudomonas aeruginosa [2]) is on record?
Answer: 1000

Question: And the “No. of Colony forming Units” value (Pseudomonas aeruginosa [3])?
Answer: 16000

Question: For `COCC1OC(SCCCCCCOC2CCC3(C)C(=CCC4C3CCC3(C)C(C(C)CCCC(C)C)CCC43)C2)C(O)C(O)C1O` (configuration not stated), which PI (Pseudomonas aeruginosa [2]) is on record?
Answer: 0.53

Question: With `CC(=O)NC1C(SCCCCCCOC2CCC3(C)C(=CCC4C3CCC3(C)C(C(C)CCCC(C)C)CCC43)C2)OC(CO)C(O)C1O` (stereo in doubt; form 1) [listing 2 of 2 here] as the compound, how does the Log PI (Mus musculus [9]) read?
Answer: 0

Question: Which PI (Mus musculus [10]) does the source give for `CC(C)CCCC(C)[C@H]1CC[C@H]2C3CC=C4C[C@@H](OCCCCCCS[C@@H]5O[C@@H](CO)[C@@H](O)[C@H](O)[C@H]5O)CC[C@]4(C)[C@H]3CC[C@]12C` (some centres not stated) here?
Answer: 2.29

Question: What about the PI (Mus musculus [11]) of the same compound?
Answer: 9.52

Question: What about the PI (Mus musculus [12]) of the same compound?
Answer: 2.29

Question: What about the PI (Mus musculus [13]) of the same compound?
Answer: 4.81

Question: And the PI (Mus musculus [14])?
Answer: 2.59

Question: And the Log PI [8]?
Answer: 4.02

Question: For `CC(C)CCCC(C)[C@H]1CC[C@H]2C3CC=C4C[C@@H](OCCCCCCS[C@@H]5O[C@@H](CO)[C@@H](O)[C@H](O)[C@@H]5O)CC[C@]4(C)[C@H]3CC[C@]12C` (stereo in doubt; form 1) [listing 2 of 2 here], which Log PI [8] is on record?
Answer: 0

Question: Which Log PI [8] does the source give for `CC(C)CCCC(C)[C@H]1CC[C@H]2C3CC=C4C[C@@H](OCCCCCCS[C@H]5O[C@@H](CO)[C@@H](O)[C@H](O)[C@H]5O)CC[C@]4(C)[C@H]3CC[C@]12C` (some centres not stated) here?
Answer: 1.53

Question: For `CC(C)CCCC(C)[C@H]1CC[C@H]2C3CC=C4C[C@@H](OCCCCCCS[C@@H]5O[C@@H](CO)[C@@H](O)[C@H](O)[C@@H]5O)CC[C@]4(C)[C@H]3CC[C@]12C` (stereo in doubt; form 2), which Log PI (Mus musculus [9]) is on record?
Answer: 0

Question: What about the Log PI [15] of the same compound?
Answer: 0

Question: For `CC(C)CCCC(C)C1CCC2C3CC=C4CC(OCCCCCCCCSC5OC(CO)C(O)C(O)C5O)CCC4(C)C3CCC12C` (configuration not stated), which PI (Pseudomonas aeruginosa [2]) is on record?
Answer: 0.58

Question: For `CC(C)CCCC(C)C1CCC2C3CC=C4CC(OCCCCCCSC5OC(CN)C(O)C(O)C5O)CCC4(C)C3CCC12C` (configuration not stated), which PI (Pseudomonas aeruginosa [2]) is on record?
Answer: 0.98
